Tests used:
Test in all cases: β-D-ribosidase substrates in Columbia agar, colored or fluorescent colonies
S. aureus (MSSA) = assay type: cell-based, Staphylococcus aureus
Protocol: (§1) The media hereinafter were prepared in 200 ml of a Columbia agar base (Oxoid), in combination with the chromogenic β-D-ribosidase substrates. The various substrates and also the concentrations and the additives used in the media are described in Table 1 below:
(§2) The β-D-ribosidase substrates are solubilized in DMSO and added to the media so as to obtain the concentrations indicated in Table 1.
(§3) 191 bacterial strains were inoculated onto each of the media using a suspension at 0.5 MacFarland diluted to 1/1000. The dishes were incubated at 37° C. and then read.
(§4) The media were distributed into Petri dishes, then inoculated with approximately 100 000 CFU, then incubated at 37° C. for 48 h. The colonies formed were examined visually after incubation times of 18, 24 and 48 hours.
(§5) The stock collection of 191 strains comprised: […], 48 Staphylococcus spp, 61 Enterococcus spp and 3 alpha-hemolytic Streptococcus.

S. aureus (MRSA) = assay type: cell-based, Staphylococcus aureus
Protocol: as §1, §2, §3, §4, §5

[1] = test system: Alpha-hemolytic streptococci; assay type: cell-based, alpha-hemolytic Streptococcus
Protocol: as §1, §2, §3, §4, §5

Enterococci = assay type: cell-based, Enterococcus spp
Protocol: as §1, §2, §3, §4, §5

Micrococcus luteus = assay type: cell-based
Protocol: [The procedure below names another organism; the source lists this organism under the same test.] as §1, §2, §3, §4, §5

[2] = test system: Coagulase-negative Staphylococci; assay type: cell-based, Staphylococcus spp; conditions: Coagulase-negative Staphylococci
Protocol: as §1, §2, §3, §4, §5

[3] = 400 mg/L + ammoniacal iron citrate 100 mg/l, 18 h
[4] = 400 mg/L + ammoniacal iron citrate 100 mg/l, 24 h
[5] = 400 mg/L + ammoniacal iron citrate 100 mg/l, 48 h

## Cc1cc(=O)oc2cc(O[C@@H]3O[C@H](CO)[C@@H](O)[C@H]3O)ccc12 [4-MU-β-riboside, 4-Methylumbelliferyl-beta-D-riboside]
S. aureus (MSSA); 50 mg/L, 18 h
  % of strains producing colored or fluorescent colonies: 100%
S. aureus (MSSA); 50 mg/L, 24 h
  % of strains producing colored or fluorescent colonies: 100%
S. aureus (MSSA); 50 mg/L, 48 h
  % of strains producing colored or fluorescent colonies: 100%
S. aureus (MRSA); 50 mg/L, 18 h
  % of strains producing colored or fluorescent colonies: 97%
S. aureus (MRSA); 50 mg/L, 24 h
  % of strains producing colored or fluorescent colonies: 97%
S. aureus (MRSA); 50 mg/L, 48 h
  % of strains producing colored or fluorescent colonies: 97%
[1]; 50 mg/L, 18 h
  % of strains producing colored or fluorescent colonies: 0%
[1]; 50 mg/L, 24 h
  % of strains producing colored or fluorescent colonies: 0%
[1]; 50 mg/L, 48 h
  % of strains producing colored or fluorescent colonies: 0%
Enterococci; 50 mg/L, 18 h
  % of strains producing colored or fluorescent colonies: 57%
Enterococci; 50 mg/L, 24 h
  % of strains producing colored or fluorescent colonies: 57%
Enterococci; 50 mg/L, 48 h
  % of strains producing colored or fluorescent colonies: 49%
Micrococcus luteus; 50 mg/L, 18 h
  % of strains producing colored or fluorescent colonies: 0%
Micrococcus luteus; 50 mg/L, 24 h
  % of strains producing colored or fluorescent colonies: 0%
Micrococcus luteus; 50 mg/L, 48 h
  % of strains producing colored or fluorescent colonies: 0%
[2]; 50 mg/L, 18 h
  % of strains producing colored or fluorescent colonies: 82%
[2]; 50 mg/L, 24 h
  % of strains producing colored or fluorescent colonies: 82%
[2]; 50 mg/L, 48 h
  % of strains producing colored or fluorescent colonies: 82%

## OC[C@H]1O[C@@H](Oc2c[nH]c3cc(Cl)ccc23)[C@H](O)[C@@H]1O [Pink-β-riboside, 6-Chloro-3-indoxyl-beta-D-riboside]
S. aureus (MSSA); 100 mg/L, 18 h
  % of strains producing colored or fluorescent colonies: 64%
S. aureus (MSSA); 100 mg/L, 24 h
  % of strains producing colored or fluorescent colonies: 64%
S. aureus (MSSA); 100 mg/L, 48 h
  % of strains producing colored or fluorescent colonies: 100%
S. aureus (MSSA); 200 mg/L, 18 h
  % of strains producing colored or fluorescent colonies: 57%
S. aureus (MSSA); 200 mg/L, 24 h
  % of strains producing colored or fluorescent colonies: 64%
S. aureus (MSSA); 200 mg/L, 48 h
  % of strains producing colored or fluorescent colonies: 100%
S. aureus (MRSA); 100 mg/L, 18 h
  % of strains producing colored or fluorescent colonies: 91%
S. aureus (MRSA); 100 mg/L, 24 h
  % of strains producing colored or fluorescent colonies: 96%
S. aureus (MRSA); 100 mg/L, 48 h
  % of strains producing colored or fluorescent colonies: 100%
S. aureus (MRSA); 200 mg/L, 18 h
  % of strains producing colored or fluorescent colonies: 84%
S. aureus (MRSA); 200 mg/L, 24 h
  % of strains producing colored or fluorescent colonies: 94%
S. aureus (MRSA); 200 mg/L, 48 h
  % of strains producing colored or fluorescent colonies: 100%
[1]; 100 mg/L, 18 h
  % of strains producing colored or fluorescent colonies: 0%
[1]; 100 mg/L, 24 h
  % of strains producing colored or fluorescent colonies: 0%
[1]; 100 mg/L, 48 h
  % of strains producing colored or fluorescent colonies: 0%
[1]; 200 mg/L, 18 h
  % of strains producing colored or fluorescent colonies: 0%
[1]; 200 mg/L, 24 h
  % of strains producing colored or fluorescent colonies: 0%
[1]; 200 mg/L, 48 h
  % of strains producing colored or fluorescent colonies: 0%
Enterococci; 100 mg/L, 18 h
  % of strains producing colored or fluorescent colonies: 0%
Enterococci; 100 mg/L, 24 h
  % of strains producing colored or fluorescent colonies: 0%
Enterococci; 100 mg/L, 48 h
  % of strains producing colored or fluorescent colonies: 2%
Enterococci; 200 mg/L, 18 h
  % of strains producing colored or fluorescent colonies: 0%
Enterococci; 200 mg/L, 24 h
  % of strains producing colored or fluorescent colonies: 0%
Enterococci; 200 mg/L, 48 h
  % of strains producing colored or fluorescent colonies: 0%
Micrococcus luteus; 100 mg/L, 18 h
  % of strains producing colored or fluorescent colonies: 0%
Micrococcus luteus; 100 mg/L, 24 h
  % of strains producing colored or fluorescent colonies: 0%
Micrococcus luteus; 100 mg/L, 48 h
  % of strains producing colored or fluorescent colonies: 0%
Micrococcus luteus; 200 mg/L, 18 h
  % of strains producing colored or fluorescent colonies: 0%
Micrococcus luteus; 200 mg/L, 24 h
  % of strains producing colored or fluorescent colonies: 0%
Micrococcus luteus; 200 mg/L, 48 h
  % of strains producing colored or fluorescent colonies: 0%
[2]; 100 mg/L, 18 h
  % of strains producing colored or fluorescent colonies: 3%
[2]; 100 mg/L, 24 h
  % of strains producing colored or fluorescent colonies: 3%
[2]; 100 mg/L, 48 h
  % of strains producing colored or fluorescent colonies: 3%
[2]; 200 mg/L, 18 h
  % of strains producing colored or fluorescent colonies: 3%
[2]; 200 mg/L, 24 h
  % of strains producing colored or fluorescent colonies: 3%
[2]; 200 mg/L, 48 h
  % of strains producing colored or fluorescent colonies: 6%

## Dihydroxyflavone-beta-D-riboside [DHF-β-riboside]
S. aureus (MSSA); [3]
  % of strains producing colored or fluorescent colonies: 100%
S. aureus (MSSA); [4]
  % of strains producing colored or fluorescent colonies: 100%
S. aureus (MSSA); [5]
  % of strains producing colored or fluorescent colonies: 100%
S. aureus (MRSA); [3]
  % of strains producing colored or fluorescent colonies: 100%
S. aureus (MRSA); [4]
  % of strains producing colored or fluorescent colonies: 100%
S. aureus (MRSA); [5]
  % of strains producing colored or fluorescent colonies: 100%
[1]; [3]
  % of strains producing colored or fluorescent colonies: 0%
[1]; [4]
  % of strains producing colored or fluorescent colonies: 0%
[1]; [5]
  % of strains producing colored or fluorescent colonies: 0%
Enterococci; [3]
  % of strains producing colored or fluorescent colonies: 30%
Enterococci; [4]
  % of strains producing colored or fluorescent colonies: 30%
Enterococci; [5]
  % of strains producing colored or fluorescent colonies: 48%
Micrococcus luteus; [3]
  % of strains producing colored or fluorescent colonies: 0%
Micrococcus luteus; [4]
  % of strains producing colored or fluorescent colonies: 0%
Micrococcus luteus; [5]
  % of strains producing colored or fluorescent colonies: 0%
[2]; [3]
  % of strains producing colored or fluorescent colonies: 68%
[2]; [4]
  % of strains producing colored or fluorescent colonies: 68%
[2]; [5]
  % of strains producing colored or fluorescent colonies: 91%
